The record followed here is US20260125382A1, “COMPOUNDS FOR INHIBITING OR DEGRADING CDK2 AND/OR CDK9 AND MEDICINAL USE THEREOF” (KOREA RESEARCH INSTITUTE OF CHEMICAL TECHNOLOGY, priority 2022, published 2026).

For assay [1], the target named is T1, CDK9 (Homo sapiens, UniProt P50750).
T1 construct: endogenous in cells; host or cells: MDA-MB-231
The assay is described as follows: CDK protein degradation activity (Western blotting), CDK9. The following applies: MDA-MB-231 cells, 16 hours, Western blot. It counts as cell-based. The gist of the method:
(§1)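 Protein levels were read by Western blot densitometry, tubulin serving as loading reference. Beforehand, MDA-MB-231 cells had been exposed for 16 hours to 100 nM, 1 μM or 10 μM compound, DMSO as control.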

Assay [2] deals with T2, CDK2 (Homo sapiens, UniProt P24941).
T2 construct: endogenous in cells; host or cells: MDA-MB-231
The assay is described as follows: CDK protein degradation activity (Western blotting), CDK2. It counts as cell-based. The following applies: MDA-MB-231 cells, 16 hours, Western blot. The gist of the method: as §1

T1 sequence (P50750 whole entry): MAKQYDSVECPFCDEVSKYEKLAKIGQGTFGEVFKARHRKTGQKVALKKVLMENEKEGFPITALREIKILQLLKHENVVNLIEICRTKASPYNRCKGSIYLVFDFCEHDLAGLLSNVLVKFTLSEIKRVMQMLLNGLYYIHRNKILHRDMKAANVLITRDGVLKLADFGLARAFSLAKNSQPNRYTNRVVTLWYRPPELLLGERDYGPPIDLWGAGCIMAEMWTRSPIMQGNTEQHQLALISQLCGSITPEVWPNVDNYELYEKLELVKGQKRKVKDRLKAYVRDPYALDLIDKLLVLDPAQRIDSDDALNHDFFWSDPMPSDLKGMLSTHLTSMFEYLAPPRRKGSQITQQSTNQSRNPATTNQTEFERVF

With `Cc1cccc(C(=O)NC2CC(n3cnc4c(NC5CCN(C(=O)CC6CCN(c7ccc8c(c7)C(=O)N([C@H]7CCC(=O)NC7=O)C8=O)CC6)CC5)ncnc43)C2)n1` (stereo partly drawn) [Compound 53, N-((1s,3s)-3-(6-((1-(2-(1-(2-(2,6-dioxopiperidin-3-yl)-1,3-dioxoisoindolin-5-yl)piperidin-4-yl)acetyl)piperidin-4-yl)amino)-9H-purin-9-yl)cyclobutyl)-6-methylpicolinamide], in assay [1], the “Enzyme degradation CDK9 (% remaining) @ 0.1 μM” value is given as 90%, the “Enzyme degradation CDK9 (% remaining) @ 1 μM” value was found to be 90% and the “Enzyme degradation CDK9 (% remaining) @ 10 μM” value turned out to be 10%. Also, in assay [2], the “Enzyme degradation CDK2 (% remaining) @ 0.1 μM” value came out at 90%, the “Enzyme degradation CDK2 (% remaining) @ 1 μM” value was found to be 80% and the “Enzyme degradation CDK2 (% remaining) @ 10 μM” value is given as 70%.

`O=C1CC[C@H](N2C(=O)c3cc(F)c(N4CCC(C(=O)N5CCC(CN6CCN(c7ccc(Nc8ncnc9c8ncn9[C@H]8C[C@@H](NC(=O)c9c(Cl)cccc9Cl)C8)cc7)CC6)CC5)CC4)cc3C2=O)C(=O)N1` [Compound 462, 2,6-dichloro-N-((1s,3s)-3-(6-((4-(4-((1-(1-(2-(2,6-dioxopiperidin-3-yl)-6-fluoro-1,3-dioxoisoindolin-5-yl)piperidin-4-carbonyl)piperidin-4-yl)methyl)piperazin-1-yl)phenyl)amino)-9H-purin-9-yl)cyclobutyl)benzamide]: in assay [1], the “Enzyme degradation CDK9 (% remaining) @ 0.1 μM” value was 0/0/0%, the “Enzyme degradation CDK9 (% remaining) @ 1 μM” value is recorded as 0/0/0% and the “Enzyme degradation CDK9 (% remaining) @ 10 μM” value is on record as 0/0/0%. Moreover, in assay [2], the “Enzyme degradation CDK2 (% remaining) @ 0.1 μM” value is listed as 30%, the “Enzyme degradation CDK2 (% remaining) @ 1 μM” value came out at 20% and the “Enzyme degradation CDK2 (% remaining) @ 10 μM” value came out at 20%.

For `O=C1CC[C@H](N2C(=O)c3ccc(N4CC(C(=O)N5CCC(CN6CCC(CCNc7ncnc8c7ncn8C7CC(NC(=O)c8c(Cl)cccc8Cl)C7)CC6)CC5)C4)cc3C2=O)C(=O)N1` (stereo partly drawn) [Compound 399, 2,6-dichloro-N-((1s,3s)-3-(6-((2-(1-((1-(1-(2-(2,6-dioxopiperidin-3-yl)-1,3-dioxoisoindolin-5-yl)azetidin-3-carbonyl)piperidin-4-yl)methyl)piperidin-4-yl)ethyl)amino)-9H-purin-9-yl)cyclobutyl)benzamide], in assay [1], the “Enzyme degradation CDK9 (% remaining) @ 0.1 μM” value is reported as 0/0/0%, the “Enzyme degradation CDK9 (% remaining) @ 1 μM” value is listed as 0/0/0% and the “Enzyme degradation CDK9 (% remaining) @ 10 μM” value is given as 0/0/0%. In assay [2], the “Enzyme degradation CDK2 (% remaining) @ 0.1 μM” value was 30%, the “Enzyme degradation CDK2 (% remaining) @ 1 μM” value was found to be 40% and the “Enzyme degradation CDK2 (% remaining) @ 10 μM” value was found to be 40%.

Take `O=C1CCC(N2C(=O)c3ccc(N4CCN(CCCN5CCN(c6ccc(Nc7ncnc8c7ncn8[C@H]7C[C@@H](NC(=O)Cc8ccccc8)C7)cc6)CC5)CC4)cc3C2=O)C(=O)N1` (stereo partly drawn) [Compound 239, N-((1s,3s)-3-(6-((4-(4-(3-(4-(2-(2,6-dioxopiperidin-3-yl)-1,3-dioxoisoindolin-5-yl)piperazin-1-yl)propyl)piperazin-1-yl)phenyl)amino)-9H-purin-9-yl)cyclobutyl)-2-phenylacetamide]: in assay [1], the “Enzyme degradation CDK9 (% remaining) @ 0.1 μM” value is given as 70%, the “Enzyme degradation CDK9 (% remaining) @ 1 μM” value was 0% and the “Enzyme degradation CDK9 (% remaining) @ 10 μM” value turned out to be 0%. For the same molecule, in assay [2], the “Enzyme degradation CDK2 (% remaining) @ 0.1 μM” value was 100%, the “Enzyme degradation CDK2 (% remaining) @ 1 μM” value is 20% and the “Enzyme degradation CDK2 (% remaining) @ 10 μM” value was found to be 20%.

For the molecule `Cc1cccc(C(=O)NC2CC(n3cnc4c(NCCC5CCN(CC6CCN(c7cccc8c7C(=O)N([C@H]7CCC(=O)NC7=O)C8=O)CC6)CC5)ncnc43)C2)n1` (stereo partly drawn) [Compound 306, N-((1s,3s)-3-(6-((2-(1-((1-(2-(2,6-dioxopiperidin-3-yl)-1,3-dioxoisoindolin-4-yl)piperidin-4-yl)methyl)piperidin-4-yl)ethyl)amino)-9H-purin-9-yl)cyclobutyl)-6-methylpicolinamide], in assay [1], the “Enzyme degradation CDK9 (% remaining) @ 0.1 μM” value came to 30%, the “Enzyme degradation CDK9 (% remaining) @ 1 μM” value was found to be 0% and the “Enzyme degradation CDK9 (% remaining) @ 10 μM” value is 10%. Moreover, in assay [2], the “Enzyme degradation CDK2 (% remaining) @ 0.1 μM” value was 100/100/100%, the “Enzyme degradation CDK2 (% remaining) @ 1 μM” value was 100/100/100% and the “Enzyme degradation CDK2 (% remaining) @ 10 μM” value is 100/100/100%.

Turning to `Cc1cccc(C(=O)NC2CC(n3cnc4c(NC5CCN(CCCN6CCN(c7cccc8c7C(=O)N([C@H]7CCC(=O)NC7=O)C8=O)CC6)CC5)ncnc43)C2)n1` (stereo partly drawn) [Compound 42, N-((1s,3s)-3-(6-((1-(3-(4-(2-(2,6-dioxopiperidin-3-yl)-1,3-dioxoisoindolin-4-yl)piperazin-1-yl)propyl)piperidin-4-yl)amino)-9H-purin-9-yl)cyclobutyl)-6-methylpicolinamide], in assay [1], the “Enzyme degradation CDK9 (% remaining) @ 0.1 μM” value was determined as 30%, the “Enzyme degradation CDK9 (% remaining) @ 1 μM” value is on record as 0% and the “Enzyme degradation CDK9 (% remaining) @ 10 μM” value was 10%. Besides, in assay [2], the “Enzyme degradation CDK2 (% remaining) @ 0.1 μM” value is given as 100%, the “Enzyme degradation CDK2 (% remaining) @ 1 μM” value was 60% and the “Enzyme degradation CDK2 (% remaining) @ 10 μM” value was found to be 30%.

Regarding `Cc1cccc(C(=O)N[C@H]2C[C@@H](n3cnc4c(NC5CCN(CCC6CCN(c7ccc8c(c7)C(=O)N([C@H]7CCC(=O)NC7=O)C8=O)CC6)CC5)ncnc43)C2)n1` [Compound 35, N-((1s,3s)-3-(6-((1-(2-(1-(2-(2,6-dioxopiperidin-3-yl)-1,3-dioxoisoindolin-5-yl)piperidin-4-yl)ethyl)piperidin-4-yl)amino)-9H-purin-9-yl)cyclobutyl)-6-methylpicolinamide], in assay [1], the “Enzyme degradation CDK9 (% remaining) @ 0.1 μM” value is listed as 0%, the “Enzyme degradation CDK9 (% remaining) @ 1 μM” value amounted to 10% and the “Enzyme degradation CDK9 (% remaining) @ 10 μM” value was 10%. In assay [2], the “Enzyme degradation CDK2 (% remaining) @ 0.1 μM” value was found to be 100%, the “Enzyme degradation CDK2 (% remaining) @ 1 μM” value amounted to 60% and the “Enzyme degradation CDK2 (% remaining) @ 10 μM” value was determined as 60%.

Consider `O=C1CC[C@H](N2C(=O)c3ccc(N4CC(C(=O)N5CCC(N6CCN(c7ccc(Nc8ncnc9c8ncn9[C@H]8C[C@@H](NC(=O)Cc9ccccc9)C8)cc7)CC6)CC5)C4)cc3C2=O)C(=O)N1` [Compound 342, N-((1s,3s)-3-(6-((4-(4-(1-(1-(2-(2,6-dioxopiperidin-3-yl)-1,3-dioxoisoindolin-5-yl)azetidin-3-carbonyl)piperidin-4-yl)piperazin-1-yl)phenyl)amino)-9H-purin-9-yl)cyclobutyl)-2-phenylacetamide], for which, in assay [1], the “Enzyme degradation CDK9 (% remaining) @ 0.1 μM” value is on record as 0/0/0%, the “Enzyme degradation CDK9 (% remaining) @ 1 μM” value was 0/0/0% and the “Enzyme degradation CDK9 (% remaining) @ 10 μM” value was 0/0/0%. In assay [2], the “Enzyme degradation CDK2 (% remaining) @ 0.1 μM” value was 0/0/0%, the “Enzyme degradation CDK2 (% remaining) @ 1 μM” value is on record as 0/0/0% and the “Enzyme degradation CDK2 (% remaining) @ 10 μM” value is given as 0/0/0%.

As for `O=C1CC[C@H](N2C(=O)c3ccc(N4CCC(C(=O)N5CCN(C6CC7(CCN(c8ccc(Nc9ncnc%10c9ncn%10[C@H]9C[C@@H](NC(=O)Cc%10ccccc%10)C9)cc8)CC7)C6)CC5)CC4)cc3C2=O)C(=O)N1` [Compound 361, N-((1s,3s)-3-(6-((4-(2-(4-(1-(2-(2,6-dioxopiperidin-3-yl)-1,3-dioxoisoindolin-5-yl)piperidin-4-carbonyl)piperazin-1-yl)-7-azaspiro[3.5]nonan-7-yl)phenyl)amino)-9H-purin-9-yl)cyclobutyl)-2-phenylacetamide], in assay [1], the “Enzyme degradation CDK9 (% remaining) @ 0.1 μM” value was determined as 50%, the “Enzyme degradation CDK9 (% remaining) @ 1 μM” value was 10% and the “Enzyme degradation CDK9 (% remaining) @ 10 μM” value is 10%. Besides, in assay [2], the “Enzyme degradation CDK2 (% remaining) @ 0.1 μM” value turned out to be 20%, the “Enzyme degradation CDK2 (% remaining) @ 1 μM” value came out at 10% and the “Enzyme degradation CDK2 (% remaining) @ 10 μM” value came to 10%.

With `O=C1CC[C@H](N2C(=O)c3ccc(N4CCN(CC5CCN(c6ccc(Nc7ncnc8c7ncn8[C@H]7C[C@@H](NC(=O)c8c(Cl)cccc8Cl)C7)cc6)CC5)CC4)cc3C2=O)C(=O)N1` [Compound 300, 2,6-dichloro-N-((1s,3s)-3-(6-((4-(4-((4-(2-(2,6-dioxopiperidin-3-yl)-1,3-dioxoisoindolin-5-yl)piperazin-1-yl)methyl)piperidin-1-yl)phenyl)amino)-9H-purin-9-yl)cyclobutyl)benzamide], in assay [1], the “Enzyme degradation CDK9 (% remaining) @ 0.1 μM” value was 10%, the “Enzyme degradation CDK9 (% remaining) @ 1 μM” value worked out at 0% and the “Enzyme degradation CDK9 (% remaining) @ 10 μM” value came to 0%. Besides, in assay [2], the “Enzyme degradation CDK2 (% remaining) @ 0.1 μM” value is reported as 10/10/10%, the “Enzyme degradation CDK2 (% remaining) @ 1 μM” value was 10/10/10% and the “Enzyme degradation CDK2 (% remaining) @ 10 μM” value is given as 10/10/10%.

`O=C1CC[C@@H](c2ccc(OCC(=O)N3CCC(CCCN4CCN(c5ccc(Nc6ncnc7c6ncn7[C@H]6C[C@@H](NC(=O)Cc7ccccc7)C6)cc5)CC4)CC3)cc2)C(=O)N1` [Compound 258, N-((1s,3s)-3-(6-((4-(4-(3-(1-(2-(4-(2,6-dioxopiperidin-3-yl)phenoxy)acetyl)piperidin-4-yl)propyl)piperazin-1-yl)phenyl)amino)-9H-purin-9-yl)cyclobutyl)-2-phenylacetamide]: in assay [1], the “Enzyme degradation CDK9 (% remaining) @ 0.1 μM” value was 20%, the “Enzyme degradation CDK9 (% remaining) @ 1 μM” value stood at 0% and the “Enzyme degradation CDK9 (% remaining) @ 10 μM” value was 0%. For the same molecule, in assay [2], the “Enzyme degradation CDK2 (% remaining) @ 0.1 μM” value is 20/20/20%, the “Enzyme degradation CDK2 (% remaining) @ 1 μM” value is recorded as 20/20/20% and the “Enzyme degradation CDK2 (% remaining) @ 10 μM” value is reported as 20/20/20%.
